Results on one compound are retold here after patent US20250000834A1, “COMPOSITIONS AND METHODS FOR TARGETING GPCR FOR THE PREVENTION AND TREATMENT OF PAIN” (Duke University, priority 2021, published 2025).

One experiment deals with T1, hGPR37L1 (Homo sapiens, UniProt O60883).
T1 sequence (O60883 26-481): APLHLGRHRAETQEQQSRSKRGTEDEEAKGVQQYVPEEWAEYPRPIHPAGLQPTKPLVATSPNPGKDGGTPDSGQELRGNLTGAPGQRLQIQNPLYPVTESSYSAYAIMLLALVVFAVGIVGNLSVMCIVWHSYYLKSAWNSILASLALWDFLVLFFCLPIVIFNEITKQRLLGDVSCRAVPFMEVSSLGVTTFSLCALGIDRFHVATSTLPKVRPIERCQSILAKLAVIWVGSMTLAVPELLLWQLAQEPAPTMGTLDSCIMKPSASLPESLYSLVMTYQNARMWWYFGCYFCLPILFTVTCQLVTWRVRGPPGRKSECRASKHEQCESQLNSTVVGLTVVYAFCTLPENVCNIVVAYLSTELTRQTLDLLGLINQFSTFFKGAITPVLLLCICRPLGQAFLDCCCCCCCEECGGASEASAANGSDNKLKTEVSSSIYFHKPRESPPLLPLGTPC
Put plainly: cAMP BRET assay in HEK293 cells co-transfected with GPR37L1 and cAMP BRET cDNAs. As to conditions: 10 nM. It is filed as cell-based. On the procedure:
cAMP BRET assay: To detect cAMP change after GPCR37L1 activation, we transfected a Nano-lantern cAMP plasmid (1 μg) and human GPR37L1-tango plasmid (1 μg) into HEK-293 cells. BRET activity was measured upon the addition of 100 μl/well for a final concentration of 10 μM Coelenterazine (Santa Cruz Biotechnology, Dallas, TX), 10 nM MaR1, DHA or vehicle, and 100 μM forskolin (Enzo Life Sciences (Farmingdale, NY), #BML-CN100). The luminescent activity was measured using an Infinite F200 Pro Illuminometer (Tecan Trading AG, Switzerland). The luminescent activity was normalized to basal signal levels.
Eight different concentrations of compounds ranging from 0.1 nM to 100 nM were tested.
(Bioluminescence resonance energy transfer reports proximity on the nanometre scale.)

For experiment [1], the target named is T2, GPR37L1 (Mus musculus, UniProt Q99JG2).
T2 construct: from tissue; host or cells: mouse dorsal root ganglia (DRG)
T2 sequence (Q99JG2 25-481): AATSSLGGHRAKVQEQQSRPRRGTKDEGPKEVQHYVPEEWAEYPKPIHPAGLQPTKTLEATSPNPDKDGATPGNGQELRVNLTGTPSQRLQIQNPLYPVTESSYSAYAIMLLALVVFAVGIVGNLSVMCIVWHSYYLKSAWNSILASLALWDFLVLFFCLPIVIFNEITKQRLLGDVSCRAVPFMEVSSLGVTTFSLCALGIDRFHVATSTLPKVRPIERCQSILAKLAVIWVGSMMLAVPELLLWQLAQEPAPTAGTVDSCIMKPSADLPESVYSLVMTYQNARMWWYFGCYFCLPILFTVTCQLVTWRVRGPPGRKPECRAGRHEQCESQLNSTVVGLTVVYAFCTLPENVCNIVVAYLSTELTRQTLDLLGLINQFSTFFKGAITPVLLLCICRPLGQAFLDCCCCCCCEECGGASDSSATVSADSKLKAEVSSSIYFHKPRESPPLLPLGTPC
Put plainly: Lipid overlay assay on MaR1-coated PVDF membrane with mouse DRG lysates. It is filed as binding. As to conditions: WT DRG lysate; MaR1 coated at 10 nM. Here is the method:
(§1) Lipids overlay assay: Lipids membrane coating and protein overlay assay were performed as previously described (S. Dowler, et al., Protein lipid overlay assay. Sci STKE 2002, p 16 (2002)). […] Compound-coated membranes were dried and blocked with 1% BSA. The coated membranes were incubated with lysates obtained from hGPR37L1-transfected HEK293 cells or mouse DRG lysate from WT or Gpr37l1 KO mice for 2 hours, followed by detection using an anti-GRP37L1 antibody (Bioss (Woburn, MA), Rabbit, 1:1000, #bs-15390R) or anti-flag antibody (Cell Signaling Technology (Danvers, MA), Rabbit, 1:1000, #14793). Blots were further incubated with an HRP-conjugated secondary anti-rabbit antibody (Jackson ImmunoResearch Laboratories (West Grove, PA), raised in donkey, 1:5000), developed in ECL solution (Pierce Biotechnology, Waltham, MA), and the signal was visualized from ChemiDoc XRS (Bio-Rad, Hercules, CA). The signal Intensity was quantified by Image J software (NIH).
(§2) To confirm whether DRG-expressed GPR37L1 would also interact with MaR1, a lipid overlay assay was performed on MaR1-coated PVDF membrane using DRG lysates from WT or Gpr37l1 KO mice. To determine dose-dependent binding, MaR1 was coated at the concentrations of 0.01 nM, 0.1 nM, 1 nM, and 10 nM.

The test system of experiment [2] is GPR37L1. The description is as above. As to conditions: Gpr37l1 KO DRG lysate. It is filed as binding. Here is the method:
as §1, §2

As to `CC/C=C\C/C=C\C[C@H](O)\C=C/C=C/C=C/[C@H](O)C/C=C\CCC(=O)O` [MaR1, Maresin 1], the “inhibition of forskolin-induced cAMP production” value against hGPR37L1 is on record as “significantly inhibited”. Also, the entries for the “binding spot in lipid overlay assay” value on GPR37L1 [1] and in the experiment with GPR37L1 [2] were “specific binding spot was observed” and “completely absent”, respectively.
